The values below come from the supplement of paper PMC10307832.

What all share (assay): relative viability (nuclei count vs DMSO), 5 days (fraction); higher = more cells survive
Compound in the assay “MK-2206 + Crizotinib”: NC1(c2ccc(-c3nc4ccn5c(=O)[nH]nc5c4cc3-c3ccccc3)cc2)CCC1 [MK-2206] + C[C@@H](Oc1cc(-c2cnn(C3CCNCC3)c2)cnc1N)c1c(Cl)ccc(F)c1Cl [Crizotinib] (partner 1 µM)
In a few lines:
(§1)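 Each reported value is a median over duplicate plates. It expresses relative viability: treated-well nuclei count divided by vehicle-well nuclei count. Lung cancer cell lines in 1536-well plates were dosed by pin tool a day after seeding, alone with one drug or with a fixed anchor-drug dose plus five library-drug doses (not always all listed) in √10 steps, and nuclei were counted after 5 days.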

Compound in the assay “MK-2206 + Palbociclib”: NC1(c2ccc(-c3nc4ccn5c(=O)[nH]nc5c4cc3-c3ccccc3)cc2)CCC1 [MK-2206] + CC(=O)c1c(C)c2cnc(Nc3ccc(N4CCNCC4)cn3)nc2n(C2CCCC2)c1=O [Palbociclib] (partner 0.5 µM)
Summed up:
as §1

Compound in the next assay: CS(=O)(=O)N1CCN(Cc2cc3nc(-c4cccc5[nH]ncc45)nc(N4CCOCC4)c3s2)CC1 [Pictilisib]
Summed up: (§2)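 Lung cancer cell lines in 1536-well plates were kept overnight at 37 °C, then pinned with five library-drug doses (not always all listed) spaced by √10 on vehicle-anchored plates. After 5 days without medium change, cells were fixed, permeabilised and Hoechst-stained in one step, imaged at 4×, and nuclei were counted with MetaXpress. Viability is treated-well nuclei divided by vehicle-well nuclei, taken as the median over plates. Plates passed only with control CV below 25% and at least one doubling.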

Compound in another assay: NC1(c2ccc(-c3nc4ccn5c(=O)[nH]nc5c4cc3-c3ccccc3)cc2)CCC1 [MK-2206]
In a few lines:
as §2

On to UMC-11, for which the relative viability amounted to 0.61 with MK-2206 + Crizotinib (first compound 0.01 µM); 0.569 with MK-2206 + Crizotinib (first compound 0.03162 µM); 0.603 with MK-2206 + Crizotinib (first compound 0.3162 µM); 0.707 with MK-2206 + Crizotinib (first compound 1 µM); 0.318 with MK-2206 + Palbociclib (first compound 0.01 µM); 0.359 in the assay with MK-2206 + Palbociclib (first compound 0.03162 µM). For the same cell line, the relative viability stood at 0.288 with MK-2206 + Palbociclib (first compound 0.3162 µM); 0.317 with MK-2206 + Palbociclib (first compound 1 µM); 0.989 with Pictilisib (0.02 µM); 1.14 with Pictilisib (0.06325 µM); 1.07 in the assay with Pictilisib (0.6325 µM); 0.846 with Pictilisib (1 µM, anchor plate). Besides, the relative viability in the assay with Pictilisib (2 µM) came to 0.937; in the assay with MK-2206 (0.01 µM) it was 0.94; with MK-2206 (0.03162 µM), 1.02; in the assay with MK-2206 (0.3162 µM) it was 1.07; with MK-2206 (1 µM) it was 0.937.
